# Results: PMC3361968 (Chemistry & biology, 2012)
# Legend:
# [1] = target: cathepsin S (Mus musculus, UniProt O70370); assay: activity-based labelling in living RAW cells, SDS-PAGE in-gel fluorescence; format: cell-based
# [2] = target: cathepsin B (Mus musculus, UniProt P10605); assay: as above; format: cell-based
# Sequence of cathepsin B (P10605 80-126): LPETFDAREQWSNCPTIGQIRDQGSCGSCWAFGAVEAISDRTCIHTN
# Sequence of cathepsin B (P10605 129-333): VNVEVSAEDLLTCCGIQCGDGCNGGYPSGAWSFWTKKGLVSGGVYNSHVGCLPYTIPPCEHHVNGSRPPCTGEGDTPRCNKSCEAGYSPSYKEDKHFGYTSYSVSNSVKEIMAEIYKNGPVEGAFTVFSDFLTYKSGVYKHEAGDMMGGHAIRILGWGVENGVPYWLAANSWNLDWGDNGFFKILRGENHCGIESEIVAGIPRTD
compound,measurement,setting,value
CCN1C(=CC=CC=CC2=[N+](CCCCCC(=O)NCCCC[C@H](NC(=O)[C@H](Cc3ccccc3)NC(=O)OCc3ccccc3)C(=O)COC(=O)c3c(C)cccc3C)c3ccc(S(=O)(=O)O)cc3C2(C)C)C(C)(C)c2cc(S(=O)(=O)O)ccc21 [GB123],EC50,[1],1.3 µM
same,EC50,[2],1.6 µM
